Tested on: panel of 484 cancer cell lines
Experiment: PRISM cancer cell line profiling, 5 days
Format: cell-based
Design: AUC: unit not given beside the values
Description: Cancer cell line profiling was performed using the Broad’s PRISM platform. Cell treatment and data analysis were performed as described in Yu et al[42]. Raw Luminex signal was converted to AUC values for each cell line as described. The resulting AUC profile for each compound was modeled against DepMap using the limma package in R[71]. Because hotspot mutation analysis was performed against DepMap, TP53 annotations in Fig. 6c,d are directly from DepMap.

SMILES: CN1CCN(CCC(=O)Nc2ccc3c(=O)n(CC4(O)CCN(C(=O)[C@H](CCCNC(=O)c5ccc6c(Cl)c7c(nc6c5)CCCC7)Cc5ccccc5)CC4)cnc3c2)CC1 [XL177B]
- AUC (HCC1438_LUNG): 0.9398
- AUC (HCC1588_LUNG): 1.124
- AUC (HCC1806_BREAST): 1.262
- AUC (HCC1937_BREAST): 0.9651
- AUC (HCC4006_LUNG): 1.102
- AUC (HCT15_LARGE_INTESTINE): 1.193
- AUC (HCT116_LARGE_INTESTINE): 1.02
- AUC (HDQP1_BREAST): 0.9999
- AUC (HEC1A_ENDOMETRIUM): 1.104
- AUC (HEC1B_ENDOMETRIUM): 1.096
- AUC (HEC6_ENDOMETRIUM): 1.02
- AUC (HEC59_ENDOMETRIUM): 1.13
- AUC (HEC108_ENDOMETRIUM): 0.935
- AUC (HEC151_ENDOMETRIUM): 0.9419
- AUC (HEC251_ENDOMETRIUM): 0.8279
- AUC (HEC265_ENDOMETRIUM): 0.8825
- AUC (HEP3B217_LIVER): 1.23
- AUC (HEYA8_OVARY): 1.2
- AUC (HGC27_STOMACH): 1.226
- AUC (HLF_LIVER): 0.794
- AUC (HMC18_BREAST): 1.228
- AUC (HOS_BONE): 1.145
- AUC (HPAC_PANCREAS): 1.288
- AUC (HS294T_SKIN): 1.038
- AUC (HS618T_LUNG): 1.097
- AUC (HS729_SOFT_TISSUE): 1.1211
- AUC (HS766T_PANCREAS): 1.2108
- AUC (HS852T_SKIN): 1.089
- AUC (HS939T_SKIN): 1.116
- AUC (HS944T_SKIN): 1.026
- AUC (HSC2_UPPER_AERODIGESTIVE_TRACT): 1.102
- AUC (HSC3_UPPER_AERODIGESTIVE_TRACT): 1.094
- AUC (HT29_LARGE_INTESTINE): 1.23
- AUC (HT55_LARGE_INTESTINE): 1.212
- AUC (HT144_SKIN): 1.106
- AUC (HT1080_SOFT_TISSUE): 0.9733
- AUC (HT1376_URINARY_TRACT): 0.9173
- AUC (HUCCT1_BILIARY_TRACT): 1.078
- AUC (HUH6_LIVER): 0.9719
- AUC (HUH7_LIVER): 1.132
- AUC (HUH28_BILIARY_TRACT): 1.093
- AUC (HUPT3_PANCREAS): 1.102
- AUC (IALM_LUNG): 1.165
- AUC (IGR1_SKIN): 1.13
- AUC (IGR37_SKIN): 1.06
- AUC (IGROV1_OVARY): 0.9036
- AUC (IM95_STOMACH): 0.9524
- AUC (IPC298_SKIN): 1.071
- AUC (ISHIKAWAHERAKLIO02ER_ENDOMETRIUM): 1.087
- AUC (ISTMES1_PLEURA): 0.902
- AUC (ISTMES2_PLEURA): 1.138
- AUC (J82_URINARY_TRACT): 1.062
- AUC (JHH1_LIVER): 0.9889
- AUC (JHH4_LIVER): 0.8541
- AUC (JHH5_LIVER): 1.201
- AUC (JHH6_LIVER): 1.182
- AUC (JHH7_LIVER): 1.125
- AUC (JHOC5_OVARY): 1.064
- AUC (JHOM1_OVARY): 1.08
- AUC (JHOS2_OVARY): 1.281
- AUC (JHUEM2_ENDOMETRIUM): 0.8483
- AUC (JIMT1_BREAST): 0.9922
- AUC (JMSU1_URINARY_TRACT): 1.004
- AUC (K029AX_SKIN): 1.1273
- AUC (KALS1_CENTRAL_NERVOUS_SYSTEM): 1.102
- AUC (KELLY_AUTONOMIC_GANGLIA): 1.134
- AUC (KMBC2_URINARY_TRACT): 0.9911
- AUC (KMRC1_KIDNEY): 1.146
- AUC (KMRC3_KIDNEY): 1.058
- AUC (KMRC20_KIDNEY): 1.146
- AUC (KNS42_CENTRAL_NERVOUS_SYSTEM): 1.1
- AUC (KNS60_CENTRAL_NERVOUS_SYSTEM): 1.09
- AUC (KNS62_LUNG): 1.118
- AUC (KNS81_CENTRAL_NERVOUS_SYSTEM): 1.075
- AUC (KP2_PANCREAS): 0.9926
- AUC (KP3_PANCREAS): 1.089
- AUC (KP4_PANCREAS): 0.9662
- AUC (KPL1_BREAST): 1.217
- AUC (KU1919_URINARY_TRACT): 0.9667
- AUC (KYSE30_OESOPHAGUS): 1.063
- AUC (KYSE70_OESOPHAGUS): 1.0546
- AUC (KYSE140_OESOPHAGUS): 1.1657
- AUC (KYSE150_OESOPHAGUS): 1.101
- AUC (KYSE180_OESOPHAGUS): 1.135
- AUC (KYSE270_OESOPHAGUS): 1.03
- AUC (KYSE410_OESOPHAGUS): 1.091
- AUC (KYSE510_OESOPHAGUS): 1.034
- AUC (KYSE520_OESOPHAGUS): 1.133
- AUC (L33_PANCREAS): 1.426
- AUC (LC1SQSF_LUNG): 1.115
- AUC (LCLC103H_LUNG): 1.231
- AUC (LI7_LIVER): 0.9601
- AUC (LK2_LUNG): 1.126
- AUC (LMSU_STOMACH): 1.053
- AUC (LN18_CENTRAL_NERVOUS_SYSTEM): 1.129
- AUC (LN229_CENTRAL_NERVOUS_SYSTEM): 1.034
- AUC (LNCAPCLONEFGC_PROSTATE): 0.9173
- AUC (LOUNH91_LUNG): 1.097
- AUC (LOVO_LARGE_INTESTINE): 1.325
- AUC (LOXIMVI_SKIN): 1.09
- AUC (LS180_LARGE_INTESTINE): 1.075
- AUC (LS411N_LARGE_INTESTINE): 1.3262
- AUC (LS513_LARGE_INTESTINE): 1.3335
- AUC (LS1034_LARGE_INTESTINE): 1.506
- AUC (LU99_LUNG): 0.9959
- AUC (LUDLU1_LUNG): 0.9789
- AUC (LXF289_LUNG): 1.119
- AUC (MALME3M_SKIN): 0.9879
- AUC (MCAS_OVARY): 1.03
- AUC (MCF7_BREAST): 1.188
- AUC (MDAMB175VII_BREAST): 1.1488
- AUC (MDAMB231_BREAST): 1.063
- AUC (MDAMB435S_SKIN): 1.117
- AUC (MDAMB436_BREAST): 1.147
- AUC (MDAMB468_BREAST): 1.0692
- AUC (MELHO_SKIN): 1.016
- AUC (MELJUSO_SKIN): 1.072
- AUC (MESSA_SOFT_TISSUE): 0.9027
- AUC (MEWO_SKIN): 1.126
- AUC (MFE280_ENDOMETRIUM): 1.168
- AUC (MFE296_ENDOMETRIUM): 1.031
